# According to US12060333B2 (Hoffmann-La Roche Inc., priority 2021, dated 2024):
# Biological target: SARS-CoV-2 3CLpro (Severe acute respiratory syndrome coronavirus 2, UniProt P0DTD1)
# Assay: biochemical
# Settings: IC50 (μM), SARS-CoV-2 3CLPro assay
row,Molecule,IC50
1,"NC(=O)CCN(NC(=O)[C@H](CC1CCCCC1)NC(=O)OCc1ccccc1)C(=O)[C@@H](F)Cl (single isomer, unassigned) [Example 16-A]",0.053 µM
2,"CC(C)C[C@H](NC(=O)c1cc2ccccc2[nH]1)C(=O)NN(CCC(N)=O)C(=O)[C@H](F)Cl (single isomer, unassigned) [Example 41-B]",0.034 µM
3,"Cc1cc(C(=O)N[C@@H](CC2CC2)C(=O)NN(CCC(N)=O)C(=O)C(F)Cl)no1 (mixture of isomers) [Example 75, 5-Methyl-N-[rac-(1S)-2-[2-(3-amino-3-oxo-propyl)-2-(2-chloro-2-fluoro-acetyl)hydrazino]-1-(cyclopropylmethyl)-2-axo-ethyl]isoxazole-3-carboxamide]",0.32 µM
4,"COc1cccc2[nH]c(C(=O)N[C@@H](CC(C)C)C(=O)NN(CCC(N)=O)C(=O)CCl)cc12 [Example 27, 4-Methoxy-N-[(1S)-1-[[(3-amino-3-oxo-propyl)-(2-chloroacetyl)amino]carbamoyl]-3-methyl-butyl]-1H-indole-2-carboxamide]",0.006 µM
5,"COc1cccc2[nH]c(C(=O)NC(CC(C)C)C(=O)NN(CCC(N)=O)C(=O)[C@@H](F)Cl)cc12 (mixture of isomers) [Example 54-A, 4-Methoxy-N-[rac-(1S)-1-[[(3-amino-3-oxo-propyl)-[(2S)-2-chloro-2-fluoro-acetyl]amino]carbamoyl]-3-methyl-butyl]-1H-indole-2-carboxamide]",0.004 µM
6,"Cc1cc(C(=O)NC(CC(C)C)C(=O)NN(CCC(N)=O)C(=O)C(F)Cl)no1 (racemic) [Example 97, 5-Methyl-N-[rac-(1S)-1-[[(3-amino-3-oxo-propyl)-(2-chloro-2-fluoro-acetyl)amino]carbamoyl]-3-methyl-butyl]isoxazole-3-carboxamide]",0.91 µM
7,"CC(C)C[C@H](NC(=O)c1cc2cc(Cl)ccc2[nH]1)C(=O)NN(CCC(N)=O)C(=O)[C@@H](F)Cl (racemic) [Example 58-A, 5-Chloro-N-[rac-(1S)-1-[[(3-amino-3-oxo-propyl)-[rac-(2S)-2-chloro-2-fluoro-acetyl]amino]carbamoyl]-3-methyl-butyl]-1H-indole-2-carboxamide]",0.032 µM
8,"CC(C)C[C@H](NC(=O)c1cc2c(Cl)cccc2[nH]1)C(=O)NN(CCC(N)=O)C(=O)[C@@H](F)Cl (single isomer, unassigned) [Example 53-A]",0.014 µM
9,"NC(=O)CCN(NC(=O)[C@H](CC1CC1)NC(=O)c1cc2ccccc2[nH]1)C(=O)C(F)Cl (mixture of isomers) [Example 62, N-[rac-(1S)-2-[2-(3-amino-3-oxo-propyl)-2-(2-chloro-2-fluoro-acetyl)hydrazino]-1-(cyclopropylmethyl)-2-axo-ethyl]-1H-indole-2-carboxamide]",0.017 µM
10,"Cc1cc(C(=O)N[C@@H](CC2CCCCC2)C(=O)NN(CCC(N)=O)C(=O)C(F)Cl)no1 (mixture of isomers) [Example 74, 5-Methyl-N-[rac-(1S)-2-[2-(3-amino-3-oxo-propyl)-2-(2-chloro-2-fluoro-acetyl)hydrazino]-1-(cyclohexylmethyl)-2-axo-ethyl]isoxazole-3-carboxamide]",0.028 µM
11,"NC(=O)CCN(NC(=O)[C@H](CC1CCC1)NC(=O)c1cnccn1)C(=O)C(F)Cl (mixture of isomers) [Example 79, N-[rac-(1S)-2-[2-(3-amino-3-oxo-propyl)-2-(2-chloro-2-fluoro-acetyl)hydrazino]-1-(cyclobutylmethyl)-2-axo-ethyl]pyrazine-2-carboxamide]",0.15 µM
12,"CC(C)C[C@H](NC(=O)/C=C/c1ccccc1)C(=O)NN(CCC(N)=O)C(=O)[C@@H](F)Cl (single isomer, unassigned) [Example 86-B]",0.023 µM
13,"CC(C)C[C@H](NC(=O)/C=C/c1ccccc1)C(=O)NN(CCC(N)=O)C(=O)[C@H](F)Cl (single isomer, unassigned) [Example 86-A]",0.75 µM
14,"CC(C)C[C@H](NC(=O)OCc1ccccc1)C(=O)NN(CCC(N)=O)C(=O)[C@@H](F)Cl (single isomer, unassigned) [Example 17-A]",1.63 µM
15,"NC(=O)CCN(NC(=O)[C@H](CC1CCCCC1)NC(=O)c1cn2ccccc2n1)C(=O)C(F)Cl (mixture of isomers) [Example 82, N-[rac-(1S)-2-[2-(3-amino-3-oxo-propyl)-2-(2-chloro-2-fluoro-acetyl)hydrazino]-1-(cyclohexylmethyl)-2-axo-ethyl]imidazo[1,2-a]pyridine-2-carboxamide]",0.043 µM
16,"CC(C)C[C@H](NC(=O)c1cc2ccccc2[nH]1)C(=O)NN(C[C@H]1CCNC1=O)C(=O)CF (single isomer, unassigned) [Example 38-B]",3.16 µM
17,"NC(=O)CCN(NC(=O)[C@H](CC12CC(C1)C2)NC(=O)c1nc2ccccc2[nH]1)C(=O)C(F)Cl (mixture of isomers) [Example 67, N-[rac-(1S)-2-[2-(3-amino-3-oxo-propyl)-2-(2-chloro-2-fluoro-acetyl)hydrazino]-1-(1-bicyclo[1.1.1]pentanylmethyl)-2-axo-ethyl]-1H-benzimidazole-2-carboxamide]",0.023 µM
18,"CC(C)C[C@H](NC(=O)c1cc2ccccc2[nH]1)C(=O)NN(CC1CCNC1=O)C(=O)CF (stereo partly drawn) [Example 38, N-[(1S)-1-[[(2-fluoroacetyl)-[(2-oxo-pyrrolidin-3-yl)methyl]amino]carbamoyl]-3-methyl-butyl]-1H-indole-2-carboxamide]",0.29 µM
19,Cc1cc(C(=O)N[C@@H](CC(C)C)C(=O)NN(CCC(N)=O)C(=O)CCl)no1 [Example 29],0.034 µM

# Same assay, conditions: read-out: IC50 (μM), SARS-CoV-2 3CLPro assay
row,Molecule,IC50
1,"CCC(Cl)C(=O)N(CCC(N)=O)NC(=O)[C@H](CC(C)C)NC(=O)OCc1ccccc1 (stereo partly drawn) [Example 5, Benzyl N-[(1S)-1-[[(3-amino-3-oxo-propyl)-(2-chlorobutanoyl)amino]carbamoyl]-3-methyl-butyl]carbamate]",1.76 µM
2,"N-[(1S)-1-[[(3-amino-3-oxo-propyl)-[(2R)-2-chloro-2-fluoro-acetyl]amino]carbamoyl]-3-methyl-butyl]-1H-pyrrolo[2,3-c]pyridine-2-carboxamide and N-[(1S)-1-[[(3-amino-3-oxo-propyl)-[(2S)-2-chloro-2-fluoro-acetyl]amino]carbamoyl]-3-methyl-butyl]-1H-pyrrolo[2,3-c]pyridine-2-carboxamide [Example 88]",0.013 µM
3,"CC(C)C[C@H](NC(=O)/C=C/c1ccc(Cl)cc1F)C(=O)NN(CCC(N)=O)C(=O)CCl [Example 34, 3-[(2-Chloroacetyl)-[[(2S)-2-[[(E)-3-(4-chloro-2-fluoro-phenyl)prop-2-enoyl]amino]-4-methyl-pentanoyl]amino]amino]propanamide]",0.005 µM
4,"CC(C)C[C@H](NC(=O)OCc1ccccc1)C(=O)NN(CCC(N)=O)C(=O)C(Cl)c1ccccc1 (stereo partly drawn) [Example 3, Benzyl N-[(1S)-1-[[(3-amino-3-oxo-propyl)-(2-chloro-2-phenyl-acetyl)amino]carbamoyl]-3-methyl-butyl]carbamat]",0.89 µM
5,"NC(=O)CCN(NC(=O)[C@H](CC1CCCCC1)NC(=O)c1cc2ccccc2[nH]1)C(=O)CCl [Example 35, N-[(1S)-2-[2-(3-Amino-3-axo-propyl)-2-(2-chloroacetyl)hydrazino]-1-(cyclohexylmethyl)-2-axo-ethyl]-1H-indole-2-carboxamide]",0.002 µM
6,"NC(=O)CCN(NC(=O)[C@H](CC1CCCCC1)NC(=O)c1cc2ccccc2[nH]1)C(=O)[C@H](F)Cl [Example 59-B, N-[(1S)-2-[2-(3-amino-3-oxo-propyl)-2-[(2R)-2-chloro-2-fluoro-acetyl]hydrazino]-1-(cyclohexylmethyl)-2-axo-ethyl]-1H-indole-2-carboxamide]",0.005 µM
7,"CC(C)C[C@H](NC(=O)OCc1ccccc1)C(=O)NN(Cc1c[nH]cn1)C(=O)CCl [Example 24, Benzyl N-[(1S)-1-[[(2-chloroacetyl)-(1H-imidazol-4-ylmethyl)amino]carbamoyl]-3-methyl-butyl]carbamate]",0.087 µM
8,"CC(C)C[C@H](NC(=O)c1cc2ncccc2[nH]1)C(=O)NN(CCC(N)=O)C(=O)C(F)Cl (stereo partly drawn) [Example 91, N-[(1S)-1-[[(3-amino-3-oxo-propyl)-(2-chloro-2-fluoro-acetyl)amino]carbamoyl]-3-methyl-butyl]-1H-pyrrolo[3,2-b]pyridine-2-carboxamide]",0.038 µM
9,"NC(=O)CCN(NC(=O)[C@H](CC1CCCCC1)NC(=O)OCc1ccccc1)C(=O)CF [Example 15, Benzyl N-[(1S)-2-[2-(3-amino-3-oxo-propyl)-2-(2-fluoroacetyl)hydrazino]-1-(cyclohexylmethyl)-2-axo-ethyl]carbamate]",1.2 µM
10,"CN(C(=O)c1cc2ccccc2[nH]1)[C@@H](CC1CCCCC1)C(=O)NN(CCC(N)=O)C(=O)CCl [Example 39, N-[(1S)-2-[2-(3-Amino-3-axo-propyl)-2-(2-chloroacetyl)hydrazino]-1-(cyclohexylmethyl)-2-axo-ethyl]-N-methyl-1H-indole-2-carboxamide]",0.002 µM
11,"NC(=O)CCN(NC(=O)[C@H](CC1CC1)NC(=O)OCc1ccccc1)C(=O)CCl [Example 11, Benzyl N-[(1S)-2-[2-(3-amino-3-oxo-propyl)-2-(2-chloroacetyl)hydrazino]-1-(cyclopropylmethyl)-2-axo-ethyl]carbamate]",0.023 µM
12,"CC(C)C[C@H](NC(=O)c1cc2cccnc2[nH]1)C(=O)NN(CCC(N)=O)C(=O)CCl [Example 44, N-[(1S)-1-[[(3-Amino-3-oxo-propyl)-(2-chloroacetyl)amino]carbamoyl]-3-methyl-butyl]-1H-pyrrolo[2,3-b]pyridine-2-carboxamide]",0.017 µM
13,"CC(C)C[C@H](NC(=O)c1ccon1)C(=O)NN(CCC(N)=O)C(=O)CCl [Example 43, N-[(1S)-1-[[(3-Amino-3-oxo-propyl)-(2-chloroacetyl)amino]carbamoyl]-3-methyl-butyl]isoxazole-3-carboxamide]",0.036 µM
14,"CC1(C[C@H](NC(=O)c2cc(C(F)(F)F)on2)C(=O)NN(C[C@@H]2CCNC2=O)C(=O)[C@H](F)Cl)CC1 [Example 98, N—((S)-1-(2-((R)-2-Chloro-2-fluoroacetyl)-2-(((S)-2-axopyrrolidin-3-yl)methyl)hydrazineyl)-3-(1-methylcyclopropyl)-1-oxopropan-2-yl)-5-(trifluoromethyl)isoxazole-3-carboxamide]",0.017 µM
